Patent US9340577B2, “HLA binding motifs and peptides and their uses” (priority 1992, dated 2016)
Like-named read-outs stand apart in the source and are kept apart here. No end group written: not given here.

Assays:
HLA-A1 (A*0101) = HLA-A1 (A*0101) (Homo sapiens, UniProt P04439, A114D/A174V/A182V/D101N/D185E/E176A/E190D/L180R/Q94H/R68K/S129P/T187R/V100A/V91M/W191G); experiment: biochemical; format: binding
A*3002 [1] = target: T1, A*3002 (Homo sapiens, UniProt P04439, D101N/D140H/D185E/E176R/F33S/G80R/H175R/K168Q/Q94H/R138E/R41S/V100E); experiment: biochemical; format: binding
A*2902 [2] = target: T2, A*2902 (Homo sapiens, UniProt P04439, A270S/D101N/D185E/E176V/E277Q/E87Q/F33T/G231S/H175R/I121M/I218V/I322F/K168Q/L300P/L318F/M331R/P208A/P217A/Q86L/T323A/T345S/V100A/V358M); experiment: biochemical; format: binding
HLA-A24 = format: binding, human
A31 (A*3101) = A31 (A*3101) (Homo sapiens, UniProt P04439, A270S/D185E/E176V/E277Q/F33T/G231S/G80R/H175R/I121M/I218V/I322F/K168Q/L300P/L318F/M331R/P217A/Q94H/R138Q/T323A/T345S/T97I/V358M); experiment: biochemical; format: binding
A*6801 = A*6801 (Homo sapiens, UniProt P04439, A269V/D185E/E176V/E277Q/E87N/F33Y/G231S/I121M/I166T/I218V/L180W/L300P/L318F/N151K/P208A/P217A/Q86R/R169H/T345S); experiment: biochemical; format: binding
A*2601 = A*2601 (Homo sapiens, UniProt P04439, A114D/A173T/A270S/D101N/D185E/E277Q/E87N/F33Y/G231S/I121R/I218V/K168Q/L180W/L300P/L318F/P208A/P217A/Q86R/Q94H/R138Q/S129P/T187R/T323A/T345S/V100A/V358M); experiment: biochemical; format: binding
A*3002 [3] = target: T1, A*3002; experiment: biochemical; format: binding; remark: listed apart in the source
HLA-A3.2 (A*0301) = HLA-A3.2 (A*0301) (Homo sapiens, UniProt P04439); experiment: biochemical; format: binding
A*3301 = A*3301 (Homo sapiens, UniProt P04439, A270S/D185E/E176V/E277Q/E87N/F33T/G231S/H175R/I121M/I218V/I322F/K168Q/K210R/L300P/L318F/M331R/P217A/Q86R/Q94H/R138Q/T323A/T345S/T97I/V358M/Y195H); experiment: biochemical; format: binding
A*2902 [4] = target: T2, A*2902; experiment: biochemical; format: binding; remark: listed apart in the source

T1 sequence (P04439 whole entry, looked up, the tested form may be a part, stated change not applied): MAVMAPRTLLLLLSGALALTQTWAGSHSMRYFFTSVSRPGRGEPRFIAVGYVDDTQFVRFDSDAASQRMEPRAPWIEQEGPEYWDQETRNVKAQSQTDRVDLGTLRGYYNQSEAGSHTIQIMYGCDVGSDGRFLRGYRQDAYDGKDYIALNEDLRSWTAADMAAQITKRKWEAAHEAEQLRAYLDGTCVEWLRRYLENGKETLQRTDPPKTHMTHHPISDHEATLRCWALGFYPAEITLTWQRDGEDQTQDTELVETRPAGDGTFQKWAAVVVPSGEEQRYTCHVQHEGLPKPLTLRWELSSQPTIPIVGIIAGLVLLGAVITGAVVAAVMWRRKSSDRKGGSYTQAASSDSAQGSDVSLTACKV

Sequence	IC50 (HLA-A1 (A*0101)) [nM]	IC50 (A*3002 [1]) [nM]	IC50 (A*2902 [2]) [nM]	also measured
ISEYRHYQY [Peptide 78.0254]	46	81	853	
KAGLLIIVL				binding to HLA-A24 (column 6; no allele head shown for these rows) (HLA-A24): 0
LTEITGYLY [Peptide 9012.0126]	16	151	25	
YSDREIIY [Peptide 9012.0096]	93		> 20000	
LVFGIELMEV				binding to HLA-A24 (column 6; no allele head shown for these rows) (HLA-A24): 0
ATLERTEVY [Peptide 78.0252]	656	26	557	
QAEPDRAHY [Peptide 78.0244]	3270	16	> 20000	
LSDISEYRHY [Peptide 1549.45]	27		14500	
YSKVSEFRWY [Peptide 78.0009]	539		4510	
KQNPDIVIY [Peptide 1595.10]	> 20000			IC50 (A31 (A*3101)): 4550 nM; IC50 (A*6801): > 20000 nM; IC50 (A*2601): > 20000 nM; IC50 (A*3002 [3]): 7.4 nM; IC50 (HLA-A3.2 (A*0301)): 3800 nM; IC50 (A*3301): > 20000 nM; IC50 (A*2902 [4]): > 20000 nM
KFYSKISEY [Peptide 78.0363]	> 20000	9.5	1590	
YSRIRELRY [Peptide 78.0253]	308		6280	
MLETLNNTEY [Peptide 1580.24]	36	1120		
EYRHYNYSVY [Peptide 78.0180]	> 20000	253	16000	
LFTDLRIVY [Peptide 78.0378]		89	12	
RFHSIAGQY [Peptide 78.0376]	> 20000	1		
LYPEPTDLY [Peptide 78.0354]	> 20000	1470		
EYRHYQYSLY [Peptide 78.0183]	2270	130	2370	
LFYSKVRKY [Peptide 78.0384]	> 20000	35	201	
VTETLEEITGY [Peptide 9012.0178]	20	11300	> 20000	
AALSRKVAEL				binding to HLA-A24 (column 6; no allele head shown for these rows) (HLA-A24): 0
ESNSLKCLRY [Peptide 1580.26]	359	604	7510	
AYIDNVYKF [Peptide 979-01, reference compound]				apparent % of available receptor (active MHC) (HLA-A24): 8.3%; Kd (HLA-A24; read-out: KD from Scatchard experiments, A24): 136 nM; Kd (HLA-A24; read-out: apparent KD from cold inhibition experiments, A24): 30 nM
RAHYNIVTF [Peptide E7-49]				binding class for HLA-A24 (HLA-A24): intermediate affinity (key: high affinity: >0.1; intermediate affinity: 0.1-0.01; low affinity: 0.01-0.001)
FYSKVRKYRY [Peptide 78.0176]	> 20000	326	146	
ELDPVDLLCY [Peptide 78.0017]	26	12700		
NSDVKHHMY [Peptide 9018.0010]	3.2			IC50 (A*2601): 8990 nM; IC50 (A*3002 [3]): 70 nM; IC50 (A*2902 [4]): 193 nM
GYADQLIHLY [Peptide 9018.0025]	109			IC50 (A*2601): 4400 nM; IC50 (A*3002 [3]): 1.2 nM; IC50 (A*2902 [4]): 42 nM
LSEMIQWAY [Peptide 1580.17]	1.5			IC50 (A*2601): > 20000 nM; IC50 (A*3002 [3]): 77 nM; IC50 (A*2902 [4]): 187 nM
